How the values were obtained:
bedstraw = assay: Test B pre/postemergence bedstraw; assay type: in vivo, Galium aparine
Method in brief: (§1)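 Herbicidal effect was estimated by eye on a ten-point control scale after plants spent twelve to sixteen days in a greenhouse following soil or foliar treatment. Foliar sprays targeted plants at one to four leaves; all doses were formulated in a non-phytotoxic solvent with surfactant.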

blackgrass = assay: Test B pre/postemergence blackgrass; assay type: in vivo, Alopecurus myosuroides
Method in brief: as §1

surinam grass = assay: Test B pre/postemergence surinam grass; assay type: in vivo, Brachiaria decumbens
Method in brief: as §1

corn = assay: Test B pre/postemergence corn; assay type: in vivo, Zea mays
Method in brief: as §1

crabgrass = assay: Test B pre/postemergence crabgrass; assay type: in vivo, Digitaria sanguinalis
Method in brief: as §1

giant foxtail = assay: Test B pre/postemergence giant foxtail; assay type: in vivo, Setaria faberii
Method in brief: as §1

morningglory = assay: Test B pre/postemergence morningglory; assay type: in vivo, Ipomoea hederacea
Method in brief: as §1

pigweed = assay: Test B pre/postemergence pigweed; assay type: in vivo, Amaranthus retroflexus
Method in brief: as §1

soybean = assay: Test B pre/postemergence soybean; assay type: in vivo, Glycine max
Method in brief: as §1

velvetleaf = assay: Test B pre/postemergence velvetleaf; assay type: in vivo, Abutilon theophrasti
Method in brief: as §1

wheat = assay: Test B pre/postemergence wheat; assay type: in vivo, Triticum aestivum
Method in brief: as §1

wild oat = assay: Test B pre/postemergence wild oat; assay type: in vivo, Avena fatua
Method in brief: as §1

purple nutsedge = assay: Test B pre/postemergence purple nutsedge; assay type: in vivo, Cyperus rotundus
Method in brief: as §1

rice = assay: Test B flood test rice; assay type: in vivo, Oryza sativa
Method in brief: (§2)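 Each value is a visual injury score relative to controls, with 10 meaning complete control and 0 no effect. Evaluation took place twelve to sixteen days after the 2-leaf-stage plants were treated and kept in the greenhouse.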

smallflower flatsedge = assay: Test B flood test smallflower flatsedge; assay type: in vivo, Cyperus difformis
Method in brief: as §2

duck salad = assay: Test B flood test duck salad; assay type: in vivo, Heteranthera limosa
Method in brief: as §2

[1] = Postemergence, Rate 62 g/ha, scale 0 to 10, 0 is no effect, 10 is complete control
[2] = Postemergence, Rate 250 g/ha, scale 0 to 10, 0 no effect, 10 complete control
[3] = Preemergence, Rate 62 g/ha, scale 0 to 10 (0 no effect, 10 complete control)
[4] = Preemergence, Rate 125 g/ha, scale 0 to 10 (0 no effect, 10 complete control)
[5] = Preemergence, Rate 250 g/ha, scale of 0 to 10 where 0 is no effect and 10 is complete control
[6] = Preemergence, Rate 500 g/ha, scale 0 (no effect) to 10 (complete control)
[7] = Rate 125 g/ha, Postemergence, scale 0 to 10, 0 no effect, 10 complete control
[8] = Rate 500 g/ha, Postemergence, scale 0 to 10, 0 no effect, 10 complete control
[9] = Rate 31 g/ha, Postemergence section (flood test species), scale 0 to 10
[10] = Rate 125 g/ha, Postemergence section (flood test species), scale 0 to 10, 0 no effect, 10 complete control
[11] = Rate 250 g/ha, headed Pre-emergence (flood test species), scale 0 to 10 (0 no effect, 10 complete control)
[12] = Rate 500 g/ha, headed Pre-emergence (flood test species), scale 0 to 10 (0 no effect, 10 complete control)
[13] = Rate 1000 g/ha, Pre-emergence (as headed), scale 0 to 10
[14] = Rate 2000 g/ha, Pre-emergence (as headed), scale 0 to 10
[15] = flood test, listed under Postemergence, Rate 250 g/ha, scale 0 to 10, 0 no effect, 10 complete control

`Cc1ccccc1Cn1c(=O)on(C(=O)N(c2ccc(F)cc2F)C(C)C)c1=O` [Compound 87] was tested, and the “Bedstraw plant response rating” value (bedstraw; [1]) was 2, the “Bedstraw plant response rating” value (bedstraw; [2]) was 6 and the “Bedstraw plant response rating” value (bedstraw; [3]) was 0. For the same compound, the “Plant response rating, Bedstraw” value (bedstraw; [4]) was 0, the “Plant response rating, Bedstraw” value (bedstraw; [5]) was 0 and the “Bedstraw plant response rating” value (bedstraw; [6]) was 3. For the same compound, the “Bedstraw plant response rating” value (bedstraw; [7]) was 4, the “Bedstraw plant response rating” value (bedstraw; [8]) was 8 and the “Blackgrass plant response rating” value (blackgrass; [1]) was 0. The “Blackgrass plant response rating” value (blackgrass; [2]) was 1, the “Blackgrass plant response rating” value (blackgrass; [3]) was 2 and the “Plant response rating, Blackgrass” value (blackgrass; [4]) was 3. For the same compound, the “Plant response rating, Blackgrass” value (blackgrass; [5]) was 5, the “Blackgrass plant response rating” value (blackgrass; [6]) was 7 and the “Blackgrass plant response rating” value (blackgrass; [7]) was 0. The “Blackgrass plant response rating” value (blackgrass; [8]) was 4, the “B. signalgrass plant response rating” value (surinam grass; [1]) was 0 and the “B. signalgrass plant response rating” value (surinam grass; [2]) was 0. For the same compound, the “B. signalgrass plant response rating” value (surinam grass; [3]) was 0, the “Plant response rating, B. signalgrass” value (surinam grass; [4]) was 2 and the “Plant response rating, B. signalgrass” value (surinam grass; [5]) was 4. The “B. signalgrass plant response rating” value (surinam grass; [6]) was 5, the “B. signalgrass plant response rating” value (surinam grass; [7]) was 0 and the “B. signalgrass plant response rating” value (surinam grass; Rate 500 g/ha, Postemergence, scale of 0 to 10 where 0 is no effect and 10 is complete control) was 2. For the same compound, the “Corn plant response rating” value (corn; [1]) was 0, the “Corn plant response rating” value (corn; [2]) was 0 and the “Corn plant response rating” value (corn; [3]) was 0. The “Plant response rating, Corn” value (corn; [4]) was 0, the “Plant response rating, Corn” value (corn; [5]) was 0 and the “Corn plant response rating” value (corn; [6]) was 2. For the same compound, the “Corn plant response rating” value (corn; [7]) was 0, the “Corn plant response rating” value (corn; [8]) was 2 and the “Crabgrass plant response rating” value (crabgrass; [1]) was 2. For the same compound, the “Crabgrass plant response rating” value (crabgrass; [2]) was 5, the “Crabgrass plant response rating” value (crabgrass; [3]) was 5 and the “Plant response rating, Crabgrass” value (crabgrass; [4]) was 8. The “Plant response rating, Crabgrass” value (crabgrass; [5]) was 10, the “Crabgrass plant response rating” value (crabgrass; [6]) was 10 and the “Crabgrass plant response rating” value (crabgrass; [7]) was 3. For the same compound, the “Crabgrass plant response rating” value (crabgrass; [8]) was 9, the “Giant foxtail plant response rating” value (giant foxtail; [1]) was 0 and the “Giant foxtail plant response rating” value (giant foxtail; [2]) was 3. The “Giant foxtail plant response rating” value (giant foxtail; [3]) was 8, the “Plant response rating, Giant foxtail” value (giant foxtail; [4]) was 9 and the “Plant response rating, Giant foxtail” value (giant foxtail; [5]) was 10. The “Giant foxtail plant response rating” value (giant foxtail; [6]) was 10, the “Giant foxtail plant response rating” value (giant foxtail; [7]) was 2 and the “Giant foxtail plant response rating” value (giant foxtail; [8]) was 6. For the same compound, the “Morningglory plant response rating” value (morningglory; [1]) was 4, the “Morningglory plant response rating” value (morningglory; [2]) was 7 and the “Morningglory plant response rating” value (morningglory; [3]) was 0. The “Plant response rating, Morningglory” value (morningglory; [4]) was 0, the “Plant response rating, Morningglory” value (morningglory; [5]) was 0 and the “Morningglory plant response rating” value (morningglory; [6]) was 0. For the same compound, the “Morningglory plant response rating” value (morningglory; [7]) was 7, the “Morningglory plant response rating” value (morningglory; [8]) was 9 and the “Redroot pigweed plant response rating” value (pigweed; [1]) was 0. For the same compound, the “Redroot pigweed plant response rating” value (pigweed; [2]) was 5, the “Redroot pigweed plant response rating” value (pigweed; [3]) was 4 and the “Plant response rating, Redroot pigweed” value (pigweed; [4]) was 4. For the same compound, the “Plant response rating, Redroot pigweed” value (pigweed; [5]) was 8, the “Redroot pigweed plant response rating” value (pigweed; [6]) was 10 and the “Redroot pigweed plant response rating” value (pigweed; [7]) was 0. The “Redroot pigweed plant response rating” value (pigweed; [8]) was 2, the “Soybean plant response rating” value (soybean; [1]) was 2 and the “Soybean plant response rating” value (soybean; [2]) was 2. The “Soybean plant response rating” value (soybean; [3]) was 0, the “Plant response rating, Soybean” value (soybean; [4]) was 0 and the “Plant response rating, Soybean” value (soybean; [5]) was 0. The “Soybean plant response rating” value (soybean; [6]) was 4, the “Soybean plant response rating” value (soybean; [7]) was 2 and the “Soybean plant response rating” value (soybean; [8]) was 5. For the same compound, the “Velvetleaf plant response rating” value (velvetleaf; [1]) was 0, the “Velvetleaf plant response rating” value (velvetleaf; [2]) was 0 and the “Velvetleaf plant response rating” value (velvetleaf; [3]) was 0. For the same compound, the “Plant response rating, Velvetleaf” value (velvetleaf; [4]) was 0, the “Plant response rating, Velvetleaf” value (velvetleaf; [5]) was 3 and the “Velvetleaf plant response rating” value (velvetleaf; [6]) was 0. For the same compound, the “Velvetleaf plant response rating” value (velvetleaf; [7]) was 0, the “Velvetleaf plant response rating” value (velvetleaf; [8]) was 1 and the “Wheat plant response rating” value (wheat; [1]) was 0. The “Wheat plant response rating” value (wheat; [2]) was 0, the “Wheat plant response rating” value (wheat; [3]) was 0 and the “Plant response rating, Wheat” value (wheat; [4]) was 0. The “Plant response rating, Wheat” value (wheat; [5]) was 0, the “Wheat plant response rating” value (wheat; [6]) was 0 and the “Wheat plant response rating” value (wheat; [7]) was 0. The “Wheat plant response rating” value (wheat; [8]) was 2, the “Wild oats plant response rating” value (wild oat; [1]) was 0 and the “Wild oats plant response rating” value (wild oat; [2]) was 0. The “Wild oats plant response rating” value (wild oat; [3]) was 0, the “Plant response rating, Wild oats” value (wild oat; [4]) was 0 and the “Plant response rating, Wild oats” value (wild oat; [5]) was 4. For the same compound, the “Wild oats plant response rating” value (wild oat; [6]) was 3, the “Wild oats plant response rating” value (wild oat; [7]) was 0 and the “Wild oats plant response rating” value (wild oat; [8]) was 3. The “Nutsedge plant response rating” value (purple nutsedge; [1]) was 0, the “Nutsedge plant response rating” value (purple nutsedge; [2]) was 0 and the “Nutsedge plant response rating” value (purple nutsedge; [3]) was 0. For the same compound, the “Plant response rating, Nutsedge” value (purple nutsedge; [4]) was 0, the “Plant response rating, Nutsedge” value (purple nutsedge; [5]) was 0 and the “Nutsedge plant response rating” value (purple nutsedge; [6]) was 0. The “Nutsedge plant response rating” value (purple nutsedge; [7]) was 0, the “Nutsedge plant response rating” value (purple nutsedge; [8]) was 0 and the “Rice plant response rating” value (rice; [1]) was 0. The “Rice plant response rating” value (rice; [9]) was 0, the “Rice plant response rating” value (rice; [10]) was 0 and the “Rice plant response rating” value (rice; [11]) was 0. The “Plant response rating, Rice” value (rice; [12]) was 0, the “Rice plant response rating” value (rice; [13]) was 0 and the “Rice plant response rating” value (rice; [14]) was 0. For the same compound, the “Rice plant response rating” value (rice; [15]) was 0, the “S. Flatsedge plant response rating” value (smallflower flatsedge; [1]) was 0 and the “S. Flatsedge plant response rating” value (smallflower flatsedge; Pre-emergence, Rate 1000 g/ha, scale 0 to 10 (0 no effect, 10 complete control)) was 0. For the same compound, the “S. Flatsedge plant response rating” value (smallflower flatsedge; [10]) was 0, the “S. Flatsedge plant response rating” value (smallflower flatsedge; [11]) was 0 and the “Plant response rating, S. Flatsedge” value (smallflower flatsedge; [12]) was 0. For the same compound, the “S. Flatsedge plant response rating” value (smallflower flatsedge; [14]) was 0, the “S. Flatsedge plant response rating” value (smallflower flatsedge; [15]) was 0 and the “Ducksalad plant response rating” value (duck salad; [1]) was 0. The “Ducksalad plant response rating” value (duck salad; [9]) was 0, the “Ducksalad plant response rating” value (duck salad; [10]) was 0 and the “Ducksalad plant response rating” value (duck salad; [11]) was 0. The “Plant response rating, Ducksalad” value (duck salad; [12]) was 0, the “Ducksalad plant response rating” value (duck salad; [13]) was 0 and the “Ducksalad plant response rating” value (duck salad; [14]) was 0. For the same compound, the “Ducksalad plant response rating” value (duck salad; [15]) was 0.

Source: patent US6737383B1, “Herbicidal oxadiazolidines” (priority 1999, dated 2004)
